Key:
oxidative damage = details: mice; cited from earlier work
[1] = Reaction rate of scavengers with dicarbonyl electrophiles / LG relative to lysine; details: faster than lysine
Description: Under conditions such as inflammation and/or accumulated mutations, epithelial cells and adjacent immune cells express genes encoding enzymes involved in carcinogenesis, such as prostaglandin-endoperoxide synthase (PGHS2; COX2), NADPH oxidases, and spermine oxidase. The products of these enzymes (prostaglandins, O2D, and H2O2 plus 3-aminopropanal) lead to formation of dicarbonyl electrophiles: levuglandins (LGs), malondialdehyde (MDA), 4-oxo-nonenal (4-O NE), and acrolein. Electrophiles may lead to immune dysfunction and neoplastic risk by forming adducts with proteins and DNA11-15. However, the role of these reactive aldehydes in colon carcinogenesis is previously unknown. The present inventors have discovered that the level of LG-protein adducts is increased in the colon tissues of i) human ulcerative colitis (UC), colitis-associated carcinogenesis (CAC), and CRC; ii) mice treated with azoxymethane-dextran sulfate sodium (AOM-DSS), a model of CAC; and iii) transgenic mice with a tamoxifen-inducible disruption of Apc using the colon-specific, caudal type homeobox 2 (CDX2) Cre (CDX2P-CreERT2;Apcff), which recapitulates sporadic/genetically-driven CRC. […]

lysyl-LG adducts = assay: Lysyl-LG adducts in gastric tissues of H. pylori-infected mice (LC/ESI/MS/MS); assay type: in vivo; details: H. pylori infected mice treated for 8 weeks
Protocol: FIGS. 15A, 15B, and 15C are graphs showing C57BL/6 (A) or INS-GAS mice (B) were infected for 8 weeks with H. pylori PMSS1. Lysyl-LG adducts were measured in the gastric tissues by LC/ESI/MS/MS. *P<0.05. (C) Lysyl-LG adducts concentration was determined in AGS cells infected (plain bars) or not (open bars) with H. pylori PMSS1 for 24 h, in the presence or absence of EtSA. *P<0.05 vs. uninfected cells. § P<0.05 vs. infected cells without EtSA.
FIG. 17 is a graph showing reduction in the concentration of lysyl-levuglandin adducts in the stomachs of H. pylori infected mice treated with 2-hydroxybenzylamine for 8 weeks.
As discussed further in the Examples, the human gastric epithelial cell line AGS was infected with Hp PMSS1±10 mM EtSA. FVB/N insulin-gastrin (INS-GAS) mice and Mongolian gerbils were infected for 8 wk with Hp PMSS1 and 7.13, respectively; EtSA (0.75% in water) was given to animals beginning one wk post-infection. Lys-LG adducts, a marker of electrophile reactions, and EtSA were quantified by LC/EST/MS/MS. Histology was analyzed on H&E staining. DNA damage was evaluated by pH2AX staining. Hp colonization was quantified by culture. Mucosal immune responses were determined by RNA profiling and by Luminex assay. Mice were imaged using PET/CT with ^18F-FDG (inflammation marker) and ^18F—NaF (tumor marker). […]

[2] = test system: LG-histone adducts in RAW264.7 cells; assay: LG-lysyl adduct formation on histones in RAW264.7 cells (LC/ESI/MS/MS); assay type: cell-based, mouse
Protocol: (§1) FIGS. 11A, 11B, 11C, 11D, 11E, and 11F are a series of graphs showing that LG-lysine adducts of histones are found in cells and tissue, dependent on COX-2 activity. RAW264.7 mouse macrophage (A) and A549 human lung carcinoma (C) cells were stimulated to express COX-2, then given 20 μM arachidonic acid (AA) or vehicle. A subgroup of cells was preincubated 45 min with 50 μM indomethacin. As a measure of COX activity, PGE2 was determined by GC/MS from cell media prior to lysis (B and D). Nuclei were isolated, and histones were extracted and digested to individual amino acids prior to LC/EST/MS/MS analysis. *, p<0.05; ***, p<0.001 by ANOVA followed by Tukey's post-test (n≥5). (E). Histones were extracted from nuclei of rat liver, and analyzed as above for LG-lactam adduct. COX-2 protein was analyzed by Western blotting and plotted against lactam adduct levels. Each point corresponds to 1 liver, and shown is the line of regression (r^2=0.7237). Pearson r=0.8507; two-tailed p=0.0152. (F) LC-MS chromatograph of histones isolated from a rat liver with relatively high COX-2 expression (COX-2 band intensity of 117 arbitrary units).
(A). Scavengers were screened in RAW264.7 cells for the ability to decrease LG adduct formation on histones. Scavengers used were glucosamine (GA), 3-methoxysalicylamine (3-MoSA), pentylpyridoxamine (PPM), and 5-ethylsalicylamine (EtSA). Cells were stimulated to express COX-2, pretreated 45 min. with 500 μM scavenger or vehicle (H2O), and given 20 μM AA for 1 h before lysing and extracting histones. Histone proteins were analyzed by LC/ESI/MS/MS for LG-lysyl lactam adduct, n=2. (B) Stimulated A549 cells were pretreated with 30, 300, or 1000 μM EtSA prior to 1 h with 20 μM AA, and histones analyzed for LG-lysyl adduct. *, p<0.05 by one-way ANOVA followed by Dunnett's multiple comparisons post-test (n=3-5). (C). A549 cells were stimulated, pretreated 45 min. with 1000 μM EtSA or H2O vehicle, and given 20 μM AA for 1 h. Media was analyzed by GC/MS for PGE2 (n=3). There was no effect on PGE2 production at lower doses of EtSA (data not shown).
To stimulate COX-2 expression, A549 or RAW264.7 cells were treated overnight with 5 ng/mL IL-1B (A549) or 10 μg/mL LPS and 10 U/mL IFNγ (RAW264.7) in serum-free medium. When indicated, cells were pretreated with indomethacin, aldehyde scavengers (glucosamine, 3-MoSA, PPM or EtSA), or vehicle (ethanol for indomethacin, H2O for scavengers) for 45 min, and then given 20 μM arachidonic acid (AA) or DMSO vehicle for 1 h before lysing.
Cultured cells were lysed in hypotonic buffer (10 mM Tris/10 mM NaCl/3 mM MgCl2) containing 1 mM pyridoxamine and 100 μM indomethacin to prevent the artifactual formation of LGE2 during the lytic process. […] Protein concentration was determined using the method of Bradford. […]

[3] = test system: LG-histone adducts in A549 cells; assay: LG-lysyl adduct formation on histones in A549 cells (LC/ESI/MS/MS); assay type: cell-based, human; details: COX-2-stimulated A549, 20 μM AA, 50 μM indomethacin preincubated 45 min
Protocol: as §1, with “(F) LC-MS chromatograph of histones isolated from a rat liver with relatively high COX-2 expression (COX-2 band intensity of 117 arbitrary units).” left out
(A). […] Histone proteins were analyzed by LC/ESI/MS/MS for LG-lysyl lactam adduct, n=2. (B) Stimulated A549 cells were pretreated with 30, 300, or 1000 μM EtSA prior to 1 h with 20 μM AA, and histones analyzed for LG-lysyl adduct. *, p<0.05 by one-way ANOVA followed by Dunnett's multiple comparisons post-test (n=3-5). […] Media was analyzed by GC/MS for PGE2 (n=3). […]

NCc1ccccc1O [2-HOBA, 2-hydroxybenzylamine]
oxidative damage in models of hypertension and Alzheimer's disease (oxidative damage): protects mice from oxidative damage | rate of reaction with dicarbonyl electrophiles [1]: 3 orders of magnitude | concentration of lysyl-levuglandin adducts in the stomachs (lysyl-LG adducts): reduction

COc1ccc2c(c1)c(CC(=O)O)c(C)n2C(=O)c1ccc(Cl)cc1 [indomethacin, reference compound]
LG-histone adduct formation ([2]; COX-2-stimulated RAW264.7, 20 μM AA, 50 μM indomethacin preincubated 45 min): blocked | LG-histone adduct formation [3]: blocked

pentylpyridoxamine [reference compound]
LG adduct formation on histones ([2]; stimulated RAW264.7, 500 μM scavenger 45 min, 20 μM AA 1 h): partially inhibited

Reference: patent US11696903B2, “Compounds and methods for scavenging dicarbonyl electrophiles” (VANDERBILT UNIVERSITY, priority 2019, dated 2023)
